From patent publication US20240090503A1, “FUNGICIDAL OXADIAZOLES AND THEIR MIXTURES” (FMC CORPORATION, priority 2020, published 2024)

Legend:
[1] = test system: Puccinia recondita f. sp. tritici (the causal agent of wheat leaf rust); assay: Test C: preventive spray on wheat seedlings, wheat leaf rust, visual disease rating; assay type: in vivo; conditions: wheat seedlings
Method in brief: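 Wheat seedlings sprayed to run-off with compound in acetone/water (50/50) with 250 ppm PEG400, then inoculated with spores the following day. After 24 h saturated humidity at 20° C. and 6 days in growth chamber at 20° C., disease rated visually as % control relative to untreated controls.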

[2] = test system: Phakopsora pachyrhizi (the causal agent of Asian soybean rust); assay: Test A: preventive spray on soybean seedlings, Asian soybean rust, visual disease rating; assay type: in vivo; conditions: soybean seedlings
Method in brief: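 Preventive test: soybean seedlings received a run-off spray of compound suspended at the set ppm in 50/50 acetone/water plus 250 ppm PEG400, and one day later a P. pachyrhizi spore inoculum. Visual scoring (0 none to 100 full disease control) followed 24 h saturated incubation and 8 days' growth chamber, both at 22° C.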

[3] = test suspension 10 ppm, 100 = 100% disease control, 0 = no control
[4] = 10 ppm test suspension, 100 = 100% disease control, 0 = no control

Row | Structure (SMILES) | Test C disease control rating ([1]; test suspension 10 ppm) | Test A disease control rating [2, 3] | other results
1 | CON=C(COC(=O)c1cnn(Cc2ccc(-c3noc(C(F)(F)F)n3)cc2)c1)c1ccccc1 [compound 245] | 86% | 100% | 
2 | CCOC(=O)c1cnn(C(C)c2ccc(-c3noc(C(F)(F)F)n3)s2)c1 (stereo not drawn) [compound 246] | 100% | 100% | 
3 | CCOC(=O)c1cnn(C(C)c2ccc(-c3noc(C(F)(F)F)n3)s2)c1 (stereo not drawn) [compound 247] | 100% | 100% | 
4 | CCCOC(=O)c1cnn(C(C)c2ccc(-c3noc(C(F)(F)F)n3)s2)c1 (stereo not drawn) [compound 248] | 100% | 100% | 
5 | CCCOC(=O)c1cnn(C(C)c2ccc(-c3noc(C(F)(F)F)n3)s2)c1 (stereo not drawn) [compound 249] | 100% | 100% | 
6 | CCCOC(=O)c1cnn(Cc2cc(-c3noc(C(F)(F)F)n3)cs2)c1 [compound 250] | 74% | 100% | 
7 | CC(C)OC(=O)c1cnn(Cc2cc(-c3noc(C(F)(F)F)n3)cs2)c1 [compound 251] | 74% | 100% | 
8 | Cn1c(C(F)(F)F)nn(Cc2ccc(-c3noc(C(F)(F)F)n3)cc2)c1=O [compound 267] |  |  | Test C disease control rating ([1]; test suspension 50 ppm): 74%; Test A disease control rating ([2]; test suspension 50 ppm): 99%
9 | CCOc1ccccc1OCCOC(=O)c1cnn(Cc2ccc(-c3noc(C(F)(F)F)n3)cc2)c1 [compound 268] | 86% | 100% | 
10 | CC1(COC(=O)c2cnn(Cc3ccc(-c4noc(C(F)(F)F)n4)cc3)c2)COC1 [compound 269] | 100% | 100% | 
11 | CC(C)ONC(=O)c1cnn(Cc2ccc(-c3noc(C(F)(F)F)n3)cc2)c1 [compound 270] | 100% | 100% | 
12 | CCOC(=O)c1cnn(Cc2cc(-c3noc(C(F)(F)F)n3)cs2)c1 [compound 271] | 68% | 99% | 
13 | CONC(=O)c1cnn(Cc2ccc(-c3noc(C(F)(F)F)n3)cc2)c1 [compound 272] | 100% | 100% | 
14 | CC(C)(C)ONC(=O)c1cnn(Cc2ccc(-c3noc(C(F)(F)F)n3)cc2)c1 [compound 273] | 100% | 100% | 
15 | N#CCCCOC(=O)c1cnn(Cc2ccc(-c3noc(C(F)(F)F)n3)cc2)c1 [compound 274] | 100% | 100% | 
16 | COC(=O)C=CCOC(=O)c1cnn(Cc2ccc(-c3noc(C(F)(F)F)n3)cc2)c1 [compound 275] | 100% | 100% | 
17 | O=C1c2ccnn2CCN1Cc1ccc(-c2noc(C(F)(F)F)n2)cc1 [compound 297] | 93% | 100% | 
18 | O=C(OCC#Cc1ccccc1)c1cnn(Cc2ccc(-c3noc(C(F)(F)F)n3)cc2)c1 [compound 299] | 86% | 100% | 
19 | CC(C#N)OC(=O)c1cnn(Cc2ccc(-c3noc(C(F)(F)F)n3)cc2)c1 (stereo not drawn) [compound 300] | 9% | 94% | 
20 | N#Cc1ccc(COC(=O)c2cnn(Cc3ccc(-c4noc(C(F)(F)F)n4)cc3)c2)cc1 [compound 301] | 100% | 100% | 
21 | CCOC(=O)c1cn(Cc2ccc(-c3noc(C(F)(F)F)n3)cc2)nn1 [compound 303] | 100% | 100% | 
22 | CCOC(=O)c1cnn(Cc2ccc(-c3noc(C(F)(F)F)n3)cc2F)c1 [compound 304] | 100% | 100% | 
23 | CCOC(=O)c1cnn(CCOc2ccc(-c3noc(C(F)(F)F)n3)cc2)c1 [compound 308] | 0% | 0% | 
24 | COc1ccc(C(O)c2ccc(-c3noc(C(F)(F)F)n3)cc2)cc1 (stereo not drawn) [compound 309] |  |  | Test C disease control rating ([1]; test suspension 50 ppm): 68%; Test A disease control rating ([2]; test suspension 50 ppm): 100%

Row | Structure (SMILES) | Test C disease control rating ([1]; test suspension 10 ppm) | Test A disease control rating [2, 3] | other results
25 | CCOC(=O)c1cnn(Cc2cc(OC)c(-c3noc(C(F)(F)F)n3)s2)c1 [compound 336] | 0% | 0% | 
26 | CCC#CCOC(=O)c1cnn(Cc2ccc(-c3noc(C(F)(F)F)n3)cc2)c1 [compound 339] | 98% | 100% | 
27 | CN1CCCC1COC(=O)c1cnn(Cc2ccc(-c3noc(C(F)(F)F)n3)cc2)c1 (stereo not drawn) [compound 340] | 94% | 100% | 
28 | COC(=O)c1cccc2c1cnn2Cc1ccc(-c2noc(C(F)(F)F)n2)cc1 [compound 341] | 100% | 100% | 
29 | C[Si](C)(C)C#CCOC(=O)c1cnn(Cc2ccc(-c3noc(C(F)(F)F)n3)cc2)c1 [compound 348] | 96% | 100% | 
30 | CC(=O)COC(=O)c1cnn(Cc2ccc(-c3noc(C(F)(F)F)n3)cc2)c1 [compound 349] | 100% | 100% | 
31 | CON=C(C)COC(=O)c1cnn(Cc2ccc(-c3noc(C(F)(F)F)n3)cc2)c1 [compound 350] | 99% | 100% | 
32 | FC(F)(F)c1nc(-c2ccc(CN3CCc4ccccc4C3)cc2)no1 [compound 351] | 67% | 92% | 
33 | FC(F)(F)c1nc(-c2ccc(CCCn3ccc(-c4ccccc4)n3)cc2)no1 [compound 360] | 68% | 100% | 
34 | FC(F)(F)c1nc(-c2ccc(CCCn3ccc(-c4ccc(Cl)cc4)n3)cc2)no1 [compound 361] | 0% | 100% | 
35 | CCOC(=O)c1cnn(COCc2ccc(-c3noc(C(F)(F)F)n3)cc2)c1 [compound 362] |  |  | Test C disease control rating ([1]; test suspension 50 ppm): 100%; Test A disease control rating ([2]; test suspension 50 ppm): 100%
36 | O=C(O)c1cnn(CCCc2ccc(-c3noc(C(F)(F)F)n3)cc2)c1 [compound 363] |  |  | Test C disease control rating ([1]; test suspension 50 ppm): 100%; Test A disease control rating ([2]; test suspension 50 ppm): 100%
37 | CCOC(=O)C1=NOC(Cc2ccc(-c3noc(C(F)(F)F)n3)s2)C1 (stereo not drawn) [compound 366] |  |  | Test C disease control rating ([1]; test suspension 50 ppm): 100%; Test A disease control rating ([2]; test suspension 50 ppm): 100%
38 | O=C(O)C1=NOC(Cc2ccc(-c3noc(C(F)(F)F)n3)s2)C1 (stereo not drawn) [compound 367] |  |  | Test C disease control rating ([1]; test suspension 50 ppm): 67%; Test A disease control rating ([2]; test suspension 50 ppm): 96%
39 | CNC(=O)C1=NOC(Cc2ccc(-c3noc(C(F)(F)F)n3)s2)C1 (stereo not drawn) [compound 368] |  |  | Test C disease control rating ([1]; test suspension 50 ppm): 100%; Test A disease control rating ([2]; test suspension 50 ppm): 100%
40 | CCNC(=O)C1=NOC(Cc2ccc(-c3noc(C(F)(F)F)n3)s2)C1 (stereo not drawn) [compound 369] |  |  | Test C disease control rating ([1]; test suspension 50 ppm): 100%; Test A disease control rating ([2]; test suspension 50 ppm): 100%
41 | C#CCOC(=O)c1cnn(CCCc2ccc(-c3noc(C(F)(F)F)n3)cc2)c1 [compound 374] | 96% | 100% | 
42 | Cc1ccc(F)cc1OCc1ccc(-c2noc(C(F)(F)F)n2)s1 [compound 375] | 98% | 100% | 
43 | CCOC(=O)CNC(=O)c1cnn(Cc2ccc(-c3noc(C(F)(F)F)n3)cc2)c1 [compound 378] | 98% | 100% | 
44 | CN(CC#N)C(=O)c1cnn(Cc2ccc(-c3noc(C(F)(F)F)n3)cc2)c1 [compound 379] |  |  | Test C disease control rating [1, 4]: 97%; Test A disease control rating [2, 4]: 100%
45 | CCONC(=O)c1cnn(Cc2ccc(-c3noc(C(F)(F)F)n3)cc2)c1 [compound 380] |  |  | Test C disease control rating [1, 4]: 100%; Test A disease control rating [2, 4]: 100%
46 | Nc1cnn(Cc2ccc(-c3noc(C(F)(F)F)n3)cc2)c1 [compound 381] |  |  | Test C disease control rating [1, 4]: 0%; Test A disease control rating [2, 4]: 0%
47 | O=[N+]([O-])c1cnn(Cc2ccc(-c3noc(C(F)(F)F)n3)cc2)c1 [compound 382] |  |  | Test C disease control rating [1, 4]: 96%; Test A disease control rating [2, 4]: 100%
48 | FC(F)(F)c1nc(-c2ccc(Cn3cc(I)cn3)cc2)no1 [compound 383] |  |  | Test C disease control rating [1, 4]: 68%; Test A disease control rating [2, 4]: 71%
